Source: PMC10970734, “Identification of an Intravenous Injectable NK1 Receptor Antagonist for Use in Traumatic Brain Injury” (International Journal of Molecular Sciences, 2024)

Key:
Experiment in all cases: Cerep selectivity profiling, receptor antagonism
Type in all cases: biochemical
[1] = target: Serotonin 5-HT2A (Homo sapiens, UniProt P28223); conditions: Serotonin 5-HT2A antagonism
Procedure: (§1) The pharmacological specificity of EUC-001 was assessed using the commercially available selectivity profiling services provided by Cerep (Celle l’Evescault, France). Initially, the activity of EUC-001, at a fixed concentration of 10 μM, was evaluated in a range of assays to assess pharmacological selectivity relative to other cell-surface receptors, ion channels and transport proteins. Where any significant binding was detected, further assays were performed to quantify potential non-selective activity. […] In terms of this non-specific activity, the IC50s are approximately 3.6 log units greater than that required for NK1R antagonism.
(§2) The pharmacological specificity of EUC-001 was assessed using the commercially available selectivity profiling services provided by Cerep (Celle l’Evescault, France). For initial screens, the binding of EUC-001 (synthesized by Hoffmann-La Roche, Basel, Switzerland) at a fixed concentration of 10 μM was evaluated in a range of assays to assess pharmacological selectivity relative to other cell-surface receptors, ion channels and transport proteins.
(§3) For agonist activity, results are expressed as a percentage of the control agonist response induced by the selective NK1R agonist [Sar^9, Met(O2)^11]-substance P (100 nM) for a range of concentrations of EUC-001. Antagonist activity is expressed as a percentage change in the response induced by 3 nM [Sar^9, Met(O2)^11]-SP (R&D systems) across a range of concentrations of EUC-001. The EC50 values (concentration producing a half-maximal specific response) and IC50 values (concentration causing a half-maximal inhibition of the control specific agonist response) were determined by non-linear regression analysis of the concentration–response curves generated with mean replicate values using Hill equation curve fitting (Y = D + [(A − D)/(1 + (C/C50)nH)], where Y = specific response, D = minimum specific response, A = maximum specific response, C = compound concentration, and C50 = EC50 or IC50, and nH = slope factor). This analysis was performed using custom software developed at Cerep and validated by comparison with data generated by the commercial software SigmaPlot® 4.0 for Windows® (SPSS Inc., Chicago, IL, USA). For the antagonists, the apparent dissociation constants (KB) were calculated using the modified Cheng Prusoff equation (KB = IC50/(1 + (A/EC50A)), where A = concentration of reference agonist in the assay, and EC50A = EC50 value of the reference agonist).

[2] = target: T1, Adenosine A3 (Homo sapiens, UniProt P0DMS8)
T1 sequence (P0DMS8 1-318): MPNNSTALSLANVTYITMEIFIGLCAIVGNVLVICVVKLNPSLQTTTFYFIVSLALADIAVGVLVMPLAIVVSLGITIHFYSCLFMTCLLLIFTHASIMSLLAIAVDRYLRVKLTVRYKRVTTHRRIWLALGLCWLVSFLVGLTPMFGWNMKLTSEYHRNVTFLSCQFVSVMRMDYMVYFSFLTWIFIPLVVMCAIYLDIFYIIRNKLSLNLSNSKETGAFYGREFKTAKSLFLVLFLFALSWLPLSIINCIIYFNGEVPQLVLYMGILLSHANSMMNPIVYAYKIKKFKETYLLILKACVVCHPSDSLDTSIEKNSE
Procedure: as §1, §2, §3

[3] = target: Dopamine D2S (Homo sapiens, UniProt P14416)
Procedure: as §1, §2, §3

[4] = target: T2, Muscarinic cholinergic M2 (Homo sapiens, UniProt P08172)
T2 sequence (P08172 1-466): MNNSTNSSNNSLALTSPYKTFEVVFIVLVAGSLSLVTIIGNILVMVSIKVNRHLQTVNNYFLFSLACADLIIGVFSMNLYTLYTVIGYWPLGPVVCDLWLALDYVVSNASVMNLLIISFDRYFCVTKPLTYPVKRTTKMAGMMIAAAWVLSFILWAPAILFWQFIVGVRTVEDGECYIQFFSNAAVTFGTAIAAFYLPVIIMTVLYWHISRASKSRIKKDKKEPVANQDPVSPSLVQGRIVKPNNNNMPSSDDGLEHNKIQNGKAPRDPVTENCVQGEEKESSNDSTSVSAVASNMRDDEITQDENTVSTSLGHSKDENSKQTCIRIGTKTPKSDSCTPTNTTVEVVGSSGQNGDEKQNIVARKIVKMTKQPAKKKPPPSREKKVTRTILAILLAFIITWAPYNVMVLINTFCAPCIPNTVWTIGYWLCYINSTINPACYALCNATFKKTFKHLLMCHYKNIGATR
Procedure: as §1, §2, §3

[5] = target: Melanocortin MC4 (Homo sapiens, UniProt P32245)
Procedure: as §1, §2, §3

[6] = target: Serotonin 5-HT5A (Homo sapiens, UniProt P47898); conditions: Serotonin 5-HT5A antagonism
Procedure: as §1, §2, §3

Sequence of Serotonin 5-HT5A (P47898 whole entry): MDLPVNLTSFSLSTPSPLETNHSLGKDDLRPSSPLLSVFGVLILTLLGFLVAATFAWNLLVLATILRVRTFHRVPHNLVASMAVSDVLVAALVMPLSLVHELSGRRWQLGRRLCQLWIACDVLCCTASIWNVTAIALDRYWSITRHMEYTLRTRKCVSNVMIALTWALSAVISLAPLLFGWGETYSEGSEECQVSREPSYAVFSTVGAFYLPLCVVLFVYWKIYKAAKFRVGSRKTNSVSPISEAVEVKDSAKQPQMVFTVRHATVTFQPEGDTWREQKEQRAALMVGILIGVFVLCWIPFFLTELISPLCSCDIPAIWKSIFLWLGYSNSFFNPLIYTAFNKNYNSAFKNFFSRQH
Sequence of Melanocortin MC4 (P32245 whole entry): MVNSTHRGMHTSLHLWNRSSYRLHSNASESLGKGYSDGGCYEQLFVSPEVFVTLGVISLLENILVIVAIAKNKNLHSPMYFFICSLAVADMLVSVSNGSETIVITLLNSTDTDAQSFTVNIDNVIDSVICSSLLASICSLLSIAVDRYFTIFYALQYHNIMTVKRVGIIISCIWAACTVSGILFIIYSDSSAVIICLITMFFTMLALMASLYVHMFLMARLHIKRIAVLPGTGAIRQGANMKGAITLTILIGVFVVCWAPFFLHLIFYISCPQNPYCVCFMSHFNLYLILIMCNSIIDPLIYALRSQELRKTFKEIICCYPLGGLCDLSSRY
Sequence of Serotonin 5-HT2A (P28223 whole entry): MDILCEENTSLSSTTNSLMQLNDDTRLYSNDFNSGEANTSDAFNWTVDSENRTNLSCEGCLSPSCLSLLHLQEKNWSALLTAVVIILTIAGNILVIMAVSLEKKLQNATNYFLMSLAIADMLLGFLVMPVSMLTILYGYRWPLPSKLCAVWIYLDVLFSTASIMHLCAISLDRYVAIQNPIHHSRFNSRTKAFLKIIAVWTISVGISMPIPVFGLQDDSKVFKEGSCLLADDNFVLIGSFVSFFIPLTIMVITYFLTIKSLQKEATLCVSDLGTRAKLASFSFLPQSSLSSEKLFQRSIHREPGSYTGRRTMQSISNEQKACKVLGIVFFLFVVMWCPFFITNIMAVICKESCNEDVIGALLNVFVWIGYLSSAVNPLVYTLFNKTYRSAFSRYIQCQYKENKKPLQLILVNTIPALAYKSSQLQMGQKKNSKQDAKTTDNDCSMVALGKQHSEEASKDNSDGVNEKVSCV
Sequence of Dopamine D2S (P14416 1-414 isoform P14416-2): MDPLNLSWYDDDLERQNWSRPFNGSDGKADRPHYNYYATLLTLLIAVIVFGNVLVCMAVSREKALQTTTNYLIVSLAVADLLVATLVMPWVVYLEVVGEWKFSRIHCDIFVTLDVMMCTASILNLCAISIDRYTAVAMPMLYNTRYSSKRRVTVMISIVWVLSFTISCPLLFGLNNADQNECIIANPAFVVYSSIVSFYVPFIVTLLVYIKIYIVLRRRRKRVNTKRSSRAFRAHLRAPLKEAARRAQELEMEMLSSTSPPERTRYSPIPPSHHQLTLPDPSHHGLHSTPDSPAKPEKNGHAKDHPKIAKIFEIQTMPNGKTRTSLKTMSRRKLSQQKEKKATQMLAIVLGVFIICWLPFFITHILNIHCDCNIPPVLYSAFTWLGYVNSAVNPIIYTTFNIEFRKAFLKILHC

For `Cc1ccccc1-c1cc(N2CCN(C)CC2)ncc1C(=O)N(C)Cc1cc(C(F)(F)F)cc(C(F)(F)F)c1` [EUC-001, N-(3,5-Bis-trifluoromethyl-benzyl)-N-methyl-6-(4-methyl-piperazine-1-yl)-4-o-tolyl-nicotinamide], which IC50 [1] is on record?
The IC50 was 15 µM.

And the “IC50 (M)” value [2]?
The value was “Not calculable”.

What about the “IC50 (M)” value [3] of the same compound?
Its value is “Not calculable”.

And the IC50 [4]?
Its IC50 is 30 µM.

And the IC50 [5]?
The IC50 was 13 µM.

What about the IC50 [6] of the same compound?
Its IC50 is 4 µM.
